The results in this text go back to patent US20040142819A1, “Compositions and methods for synergistic weed control” (priority 2003, published 2004).

Molecules are shown by their SMILES.

Test [1] has as its system Sorghum halepense (Johnsongrass). The experiment in a line: Greenhouse post-emergence weed control of seedling johnsongrass, visual % control, Colby expected response.
Experimental: In this evaluation, seedling johnsongrass was grown in 9-cm diameter styrofoam cups in a soil medium of a 1:1 mixture of top-soil from a Freestone fine sandy loam (fine-loamy, siliceous, thermic Aquic Paleudalf) and masonry sand. The temperature in the greenhouse was maintained at 31 ″5° C. for several weeks until the plants were approximately 5-inch (13 cm) leaf seedlings. Said plants were then sprayed with an aqueous solution of the test compounds at the rates indicated in Tables Ia and Ib as measured in lbs of herbicide per acre. Each treatment was replicated 4 times and the average control % (on a visual basis) is shown in Table Ia for 10 days after treatment and Table Ib for 20 days after treatment.
The methods described by Colby in “Calculating Synergistic and Antagonistic Responses of Herbicide Combinations,” 15 Weeds 20-22 (1967), were used to calculate interactions of herbicide tank mixtures. The expected response for tank mixtures was calculated by taking the product of the recorded values from the herbicides applied alone and dividing by 100.
The subject of test [2] is SORHAZ (johnsongrass, approximate height 3 feet). The experiment in a line: Field plot weed control, visual % control, rhizome johnsongrass. The test is classed as in vivo. On the procedure:
(§1) In this evaluation, seedling weeds of rhizome johnsongrass and white clover were grown in a field plot until they reached a height of 3 feet (0.9 m) and 3 inches (8 cm) respectively. The plants were then sprayed with an aqueous solution or emulsification of the test compounds at various rates as indicated in Table II. The control % (on a visual basis) is shown in Table II for 7 and 16 days after treatment.
(§2) Sethoxydim is formulated as a 1.5 lb ai/g (0.68 kg ai/g) emulsification.
(§3) Imazapyr is formulated as a 4.0 lb ai/g (1.8 kg ai/g) aqueous solution.
SORHAZ is johnsongrass with an approximate height of 3 feet (0.9 m).

Test [3] has as its system TRFRE (white clover, approximate height 3 inches). Kind of test: Field plot weed control, visual % control, white clover. The class given is in vivo. As to the method:
as §1, §2, §3
TRFRE is white clover with an approximate height of 3 inches (8 cm).

The mark [4] stands for this setting: 10 Days After Treatment, Sethoxydim 0 lb/A, imidazolinone 0.008 lb/A (0.009 kg/ha).
Where [5] appears, read: 10 Days After Treatment, Sethoxydim 0 lb/A, imidazolinone 0.016 lb/A (0.018 kg/ha).
Where [6] appears, read: 10 Days After Treatment, Sethoxydim 0 lb/A, imidazolinone 0.032 lb/A (0.036 kg/ha).
[7] abbreviates: 20 Days After Treatment, Sethoxydim 0 lb/A, imidazolinone 0.008 lb/A (0.009 kg/ha).
The mark [8] stands for this setting: 20 Days After Treatment, Sethoxydim 0 lb/A, imidazolinone 0.016 lb/A (0.018 kg/ha).
[9] abbreviates: 20 Days After Treatment, Sethoxydim 0 lb/A, imidazolinone 0.032 lb/A (0.036 kg/ha).
[10] abbreviates: Treatment 2: graminicide 0.20 lb/A (0.22 kg/ha), imidazolinone 0.
The mark [11] stands for this setting: Treatment 3: graminicide 0, imidazolinone 0.008 lb/A (0.009 kg/ha).

`CC(C)C1(C)N=C(c2nc3ccccc3cc2C(=O)O)NC1=O` (stereo not shown) [imazaquin, 2-(4,5-dihydro-4-methyl-4-(1-methyl-ethyl)-5-oxo-1H-imidazol-2-yl]-3-quinolinecarboxylic acid]: the “Actual Control (%)” value in test [1] (setting [4]) is given as 0%; in test [1] (setting [5]), 0%; in test [1] (setting [6]) it was 0%; in test [1] (10 Days After Treatment, Sethoxydim 0 lb/A, imidazolinone 0.063 lb/A (0.070 kg/ha)), 0%; in test [1] (setting [7]), 0%; in test [1] (setting [8]), 2.5%. Moreover, the “Actual Control (%)” value in test [1] (setting [9]) is reported as 3.8%; in test [1] (20 Days After Treatment, Sethoxydim 0 lb/A, imidazolinone 0.063 lb/A (0.070 kg/ha)), 5%.

Consider `COCc1cnc(C2=NC(C)(C(C)C)C(=O)N2)c(C(=O)O)c1` (stereo not shown) [imazamox, 2-[4,5-dihydro-4-methyl-4-(1-methylethyl)-5-oxo-1H-imidazol-2-yl]-5(methoxymethyl)-3-pyridinecarboxylic acid], for which the “Actual Control (%)” value in test [1] (10 Days After Treatment, Sethoxydim 0 lb/A, imidazolinone 0.004 lb/A (0.004 kg/ha)) is 12.5%; in test [1] (setting [4]), 12.5%; in test [1] (setting [5]) it was 10%; in test [1] (setting [6]), 10%; in test [1] (20 Days After Treatment, Sethoxydim 0 lb/A, imidazolinone 0.004 lb/A (0.004 kg/ha)), 30%; in test [1] (setting [7]), 40%. Further, the “Actual Control (%)” value in test [1] (setting [8]) is given as 40%; in test [1] (setting [9]), 50%.

As to `CCCC(=NOCC)C1=C(O)CC(CC(C)SCC)CC1=O` (stereo not shown) [Sethoxydim, 2-[1-(ethoxyimino)butyl]-5-[2-(ethylthio)propyl]-3-hydroxy-2-cyclohexen-1-one], in test [2] (setting [10]), the “SORHAZ 7 DAT Control (%)” value was 26.7%. The “SORHAZ 16 DAT Control (%)” value in test [2] (setting [10]) is on record as 38.3%. For the same molecule, the “TRFRE 7 DAT Control (%)” value in test [3] (setting [10]) stood at 0%. Further, the “TRFRE 16 DAT Control (%)” value in test [3] (setting [10]) was found to be 0%. For the same molecule, the “Actual Control (%)” value in test [1] (10 Days After Treatment, Sethoxydim 0.1 lb/A (0.1 kg/ha), no imidazolinone) worked out at 20%; in test [1] (10 Days After Treatment, Sethoxydim 0.2 lb/A (0.2 kg/ha), no imidazolinone), 87.5%; in test [1] (20 Days After Treatment, Sethoxydim 0.1 lb/A (0.1 kg/ha), no imidazolinone), 30%; in test [1] (20 Days After Treatment, Sethoxydim 0.2 lb/A (0.2 kg/ha), no imidazolinone) it was 95%.

As to `CC(C)C1(C)N=C(c2ncccc2C(=O)O)NC1=O` (stereo not shown) [imazapyr, (″)-2-[4,5-dihydro-4-methyl-4-(1-methylethyl)-5-oxo-1H-imidazol-2-yl]-3-pyridinecar-boxylic acid], in test [2] (setting [11]), the “SORHAZ 7 DAT Control (%)” value was 0% and the “SORHAZ 16 DAT Control (%)” value was found to be 0%. In addition, in test [3] (setting [11]), the “TRFRE 7 DAT Control (%)” value came out at 0% and the “TRFRE 16 DAT Control (%)” value was determined as 0%.
